# Laboratory results published in patent publication US7919091B2, “Lipolysis stimulated receptor (LSR) specific antibodies” (Serono Genetics Institute S.A., priority 1997, dated 2011).
# What was measured:
# LSR receptors = type: cell-based, rat; conditions: after leptin; 5 μM cycloheximide or 2.5 μM cytochalasin B, 30 min 37° C.
# Procedure: Primary cultures of rat hepatocytes are incubated for 30 min at 37° C. in the presence or in the absence of 20 ng/ml of leptin, for 10 min at 37° C. in the presence of 0.8 mM oleate. The cells are washed with PBS buffer precooled to 4° C., and then incubated for 2 hours at 4° C. in the presence of increasing concentrations of ^125I-LDL. The cells are then washed, lysed and the quantity of bound ^125I-LDL is measured.
# The initial conditions are identical to those described above; after incubation with leptin, the cells are incubated for 30 min at 37° C. with 5 μM cycloheximide, 5 μM colchicine or 2.5 μM cytochalasin B. The cells are then incubated for 10 min at 37° C. in the presence of 0.8 mM oleate. The cells are then washed with PBS buffer precooled to 4° C., and then incubated for 2 hours at 4° C. in the presence of 50 μg/ml of ^125I-LDL. 2 measurements are carried out, and the mean results are presented.
# LSR = target: T1, LSR (Rattus norvegicus, UniProt Q9WU74); test: Effect of C1q on binding, internalization and degradation of LDLs by hepatocytes in primary culture; type: cell-based
# T1 sequence (Q9WU74 36-593): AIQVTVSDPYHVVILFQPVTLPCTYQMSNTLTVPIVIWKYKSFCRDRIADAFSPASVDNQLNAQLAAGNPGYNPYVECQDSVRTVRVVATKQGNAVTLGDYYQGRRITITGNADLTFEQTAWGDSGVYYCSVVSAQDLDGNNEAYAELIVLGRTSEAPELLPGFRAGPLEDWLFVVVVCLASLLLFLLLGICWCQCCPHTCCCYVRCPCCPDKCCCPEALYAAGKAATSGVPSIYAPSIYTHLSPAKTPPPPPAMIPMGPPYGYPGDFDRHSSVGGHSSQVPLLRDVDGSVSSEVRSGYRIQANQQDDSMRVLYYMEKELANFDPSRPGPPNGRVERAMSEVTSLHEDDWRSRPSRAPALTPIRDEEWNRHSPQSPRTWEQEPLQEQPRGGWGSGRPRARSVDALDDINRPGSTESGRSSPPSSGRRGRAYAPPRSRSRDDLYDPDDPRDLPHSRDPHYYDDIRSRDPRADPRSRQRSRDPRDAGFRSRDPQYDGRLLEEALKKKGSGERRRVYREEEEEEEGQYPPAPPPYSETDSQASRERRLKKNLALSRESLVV
# T1 sequence (Q9WU74 36-525 isoform Q9WU74-3 limits assumed): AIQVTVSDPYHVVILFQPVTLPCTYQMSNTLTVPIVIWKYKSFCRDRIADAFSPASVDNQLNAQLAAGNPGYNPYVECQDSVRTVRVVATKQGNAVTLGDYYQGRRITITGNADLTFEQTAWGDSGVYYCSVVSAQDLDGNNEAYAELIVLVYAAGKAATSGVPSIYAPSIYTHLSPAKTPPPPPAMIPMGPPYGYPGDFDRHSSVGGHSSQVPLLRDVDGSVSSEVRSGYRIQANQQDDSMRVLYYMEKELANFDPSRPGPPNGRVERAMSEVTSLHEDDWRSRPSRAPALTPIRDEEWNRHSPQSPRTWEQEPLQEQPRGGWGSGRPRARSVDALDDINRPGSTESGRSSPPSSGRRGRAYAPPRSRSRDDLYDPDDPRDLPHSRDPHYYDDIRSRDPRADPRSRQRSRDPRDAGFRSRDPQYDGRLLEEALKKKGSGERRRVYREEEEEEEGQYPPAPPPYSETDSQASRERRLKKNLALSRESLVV
# Procedure: The LSR activity in the primary cultures of rat hepatocytes is measured by the binding, internalization and degradation of ^125I-LDL and ^125I-VLDL (LDL: low-density lipoprotein; VLDL: very low-density lipoprotein), as described in Bihain and Yen, 1992 and Mann et al., 1995.
# It has been shown that gC1q-R could bind the globular head of […]. We sought to use this property of C1q to displace gC1q-R combined with LSR, and we measured the effect of increasing doses of C1q on the binding, internalization and degradation of the LDLs by hepatocytes in primary culture.
Compound,induction by leptin of the LSR activity (increase in apparent number of receptors) (LSR receptors),"capture and degradation of LDLs (LSR; C1q, in the presence of oleate)","capture and degradation of LDLs (LSR; human C1q, in the absence of oleate)"
C=C1[C@@H](C)[C@H]2[C@H](Cc3ccccc3)NC(=O)[C@]23OC(=O)/C=C/[C@H](O)CCC[C@@H](C)C/C=C/[C@H]3[C@@H]1O [cytochalasin B],inhibited,–,–
"C1q: human complement factor C1q, binds gC1q-R",–,"less substantial, but nevertheless significant, increase",increase
C[C@@H]1C[C@@H]([C@H](O)CC2CC(=O)NC(=O)C2)C(=O)[C@@H](C)C1 [cycloheximide],partially inhibited,–,–
